Test results published in patent US5250283A, “Organic contrast agent analog and method of making same” (priority 1992, dated 1993).
Like-named read-outs stand apart in the source and are kept apart here.

What was measured:
[1] = Urinary excretion after i.v. IOP or TFA-IOP in rats; format: in vivo; conditions: rat
[2] = Tissue distribution 90 min after i.v. TFA-IOP (100 umol/kg) or IOP (100 in text, 104 umol/kg in tables) in rats; format: in vivo; conditions: rat; for concentration at 1.5 h: 100 umol/kg; for concentration at 1.5 h / uMoles per gram tissue / uMoles per kg / Percentage of dose in tissue: i.v.; for Percentage of dose in tissue: Table 6; for tissue uptake at 1.5 h: read-out: Percentage of dose per gram
Description: No standard curves were compiled for these tissues. The values given
represent concentrations generated using the LIVER analysis routine and
standard curve. Because this routine utilizes a control LIVER spectra for
background modeling, erroneous Iodine concentration values for these
tissues may result due to inappropriate background removal.

[3] = Biliary excretion and bile flow after i.v. TFA-IOP (100 umol/kg) or IOP (100 in text, 104 umol/kg in tables) in rats; conditions: for Percentage of dose per kg. body wt.: rat bile; for Percentage of dose per kg. body wt. / Bile flow / Bile flow per kg b.w. / Bile flow per kg l.w.: i.v.
Description: Tissues examined included liver, spleen, upper GI, lower GI, kidney, lung and heart. The length of each study was 90 minutes, during which time bile, urine and plasma samples were taken to monitor uptake and excretion. NMR relaxation rates for liver and plasma were also examined to note whether uptake of either compound might possible alter these parameters.

[4] = Plasma concentration after i.v. IOP or TFA-IOP in rats; format: in vivo; conditions: plasma, iv, 100 umol/kg, rat

CCC(Cc1c(I)cc(I)c(N)c1I)C(=O)O (centres unmarked) [IOP, iopanoic acid, reference compound]
Urine concentration ([1]; 0-20 min): 0 µM
Urine concentration ([1]; 20-40 min): 0 µM
Urine concentration ([1]; 40-60 min): 0 µM
Urine concentration ([1]; 60-80 min): 0 µM
Urine concentration ([1]; 80-90 min): 0 µM
concentration at 1.5 h ([2]; heart, iv, 90 min, liver standard curve used, may be erroneous, read-out: Heart concentration): 259 µM
uMoles per gram tissue ([2]; 90 min, heart): .26 uMOLES per gram
uMoles per kg ([2]; 90 min, heart): 259.38 uMOLES per kg
Percentage of dose in tissue ([2]; 90 min, heart): .72 PERCENTAGE OF DOSE
uMoles per gram tissue ([2]; 90 min, kidney): .11 uMOLES per gram
uMoles per kg ([2]; 90 min, kidney): 105.40 uMOLES per kg
Percentage of dose in tissue ([2]; 90 min, kidney): .69 PERCENTAGE OF DOSE
uMoles per gram tissue ([2]; 90 min, liver): .51 uMOLES per gram
uMoles per kg ([2]; 90 min, liver): 511.90 uMOLES per kg
Percentage of dose in tissue ([2]; 90 min, liver): 14.52 PERCENTAGE OF DOSE
uMoles per gram tissue ([2]; 90 min, lower GI): .14 uMOLES per gram
uMoles per kg ([2]; 90 min, lower GI): 135.23 uMOLES per kg
Percentage of dose in tissue ([2]; 90 min, lower GI): .59 PERCENTAGE OF DOSE
uMoles per gram tissue ([2]; 90 min, lung): .32 uMOLES per gram
uMoles per kg ([2]; 90 min, lung): 324.91 uMOLES per kg
Percentage of dose in tissue ([2]; 90 min, lung): 1.21 PERCENTAGE OF DOSE
uMoles per gram tissue ([2]; 90 min, spleen): .26 uMOLES per gram
uMoles per kg ([2]; 90 min, spleen): 255.54 uMOLES per kg
Percentage of dose in tissue ([2]; 90 min, spleen): .45 PERCENTAGE OF DOSE
uMoles per gram tissue ([2]; 90 min, upper GI): .31 uMOLES per gram
uMoles per kg ([2]; 90 min, upper GI): 307.91 uMOLES per kg
Percentage of dose in tissue ([2]; 90 min, upper GI): 1.31 PERCENTAGE OF DOSE
% of dose in heart ([2]; in vivo, iv, 90 min): 0.72%
% of dose in kidney ([2]; in vivo, iv, 90 min): 0.69%
% of dose in liver ([2]; in vivo, iv, 90 min): 14.53%
% of dose in lower GI ([2]; in vivo, iv, 90 min): 0.59%
% of dose in lung ([2]; in vivo, iv, 90 min): 1.21%
% of dose in spleen ([2]; in vivo, iv, 90 min): 0.45%
% of dose in upper GI ([2]; in vivo, iv, 90 min): 1.31%
tissue uptake at 1.5 h ([2]; in vivo, iv, 90 min, heart): 0.61 %ID/g
tissue uptake at 1.5 h ([2]; in vivo, iv, 90 min, kidney): 0.25 %ID/g
tissue uptake at 1.5 h ([2]; in vivo, iv, 90 min, liver): 1.21 %ID/g
tissue uptake at 1.5 h ([2]; in vivo, iv, 90 min, lower GI): 0.32 %ID/g
tissue uptake at 1.5 h ([2]; in vivo, iv, 90 min, lung): 0.77 %ID/g
tissue uptake at 1.5 h ([2]; in vivo, iv, 90 min, spleen): 0.61 %ID/g
tissue uptake at 1.5 h ([2]; in vivo, iv, 90 min, upper GI): 0.73 %ID/g
concentration at 1.5 h ([2]; kidney, iv, 90 min post injection, read-out: Kidney concentration): 105 µM
concentration at 1.5 h ([2]; kidney, iv, 90 min post injection, read-out: kidney concentration): 105 µM
concentration at 1.5 h ([2]; liver, iv, 90 min post injection, read-out: Liver concentration): 512 µM
concentration at 1.5 h ([2]; liver, iv, 90 min post injection, read-out: liver concentration): 512 µM
concentration at 1.5 h ([2]; lower gi, iv, 90 min, liver standard curve used, may be erroneous, read-out: Lower GI concentration): 135 µM
concentration at 1.5 h ([2]; lung, iv, 90 min, liver standard curve used, may be erroneous, read-out: Lung concentration): 325 µM
concentration at 1.5 h ([2]; spleen, iv, 90 min, liver standard curve used, may be erroneous, read-out: Spleen concentration): 256 µM
concentration at 1.5 h ([2]; upper gi, iv, 90 min, liver standard curve used, may be erroneous, read-out: Upper GI concentration): 308 µM
Percentage of dose per kg. body wt. ([3]; 0-10 min): 1.29 PERCENTAGE OF DOSE per kg. bod
Percentage of dose per kg. body wt. ([3]; 10-20 min): 4.38 PERCENTAGE OF DOSE per kg. bod
Percentage of dose per kg. body wt. ([3]; 20-30 min): 6.60 PERCENTAGE OF DOSE per kg. bod
Percentage of dose per kg. body wt. ([3]; 30-40 min): 5.61 PERCENTAGE OF DOSE per kg. bod
Percentage of dose per kg. body wt. ([3]; 40-50 min): 6.55 PERCENTAGE OF DOSE per kg. bod
Percentage of dose per kg. body wt. ([3]; 50-60 min): 3.86 PERCENTAGE OF DOSE per kg. bod
Percentage of dose per kg. body wt. ([3]; 60-70 min): 4.71 PERCENTAGE OF DOSE per kg. bod
Percentage of dose per kg. body wt. ([3]; 70-80 min): 4.61 PERCENTAGE OF DOSE per kg. bod
Percentage of dose per kg. body wt. ([3]; 80-90 min): 5.45 PERCENTAGE OF DOSE per kg. bod
Cmax at 1.5 h ([3]; rat, bile, iv, 100 umol/kg): 10000 µM
concentration at 5 min ([3]; rat, bile, iv, 100 umol/kg): 1610 µM
concentration at 10 min ([3]; rat, bile, iv, 100 umol/kg): 1610 µM
concentration at 0.25 h ([3]; rat, bile, iv, 100 umol/kg): 8660 µM
concentration at 20 min ([3]; rat, bile, iv, 100 umol/kg): 8660 µM
concentration at 25 min ([3]; rat, bile, iv, 100 umol/kg): 10500 µM
concentration at 0.5 h ([3]; rat, bile, iv, 100 umol/kg): 10500 µM
concentration at 35 min ([3]; rat, bile, iv, 100 umol/kg): 9850 µM
concentration at 40 min ([3]; rat, bile, iv, 100 umol/kg): 9850 µM
concentration at 50 min ([3]; rat, bile, iv, 100 umol/kg): 9670 µM
concentration at 55 min ([3]; rat, bile, iv, 100 umol/kg): 7320 µM
concentration at 1 h ([3]; rat, bile, iv, 100 umol/kg): 7320 µM
concentration at 65 min ([3]; rat, bile, iv, 100 umol/kg): 7530 µM
concentration at 70 min ([3]; rat, bile, iv, 100 umol/kg): 7530 µM
concentration at 1.25 h ([3]; rat, bile, iv, 100 umol/kg): 7760 µM
concentration at 80 min ([3]; rat, bile, iv, 100 umol/kg): 7760 µM
concentration at 85 min ([3]; rat, bile, iv, 100 umol/kg): 9560 µM
concentration at 1.5 h ([3]; rat, bile, iv, 100 umol/kg): 9560 µM
dose excreted at 1.5 h ([3]; rat, bile, iv, 100 umol/kg): 18%
Bile flow ([3]; rat, 0-10 min): .01375 mL/min
Bile flow per kg b.w. ([3]; rat, 0-10 min): .03386 ml/min per kg b.w.
Bile flow per kg l.w. ([3]; rat, 0-10 min): 1.147 ml/min per kg l.w.
Bile flow ([3]; rat, 10-20 min): .00867 mL/min
Bile flow per kg b.w. ([3]; rat, 10-20 min): .02136 ml/min per kg b.w.
Bile flow per kg l.w. ([3]; rat, 10-20 min): .72404 ml/min per kg l.w.
Bile flow ([3]; rat, 20-30 min): .01077 mL/min
Bile flow per kg b.w. ([3]; rat, 20-30 min): .02652 ml/min per kg b.w.
Bile flow per kg l.w. ([3]; rat, 20-30 min): .89866 ml/min per kg l.w.
Bile flow ([3]; rat, 30-40 min): .00977 mL/min
Bile flow per kg b.w. ([3]; rat, 30-40 min): .02406 ml/min per kg b.w.
Bile flow per kg l.w. ([3]; rat, 30-40 min): .81528 ml/min per kg l.w.
Bile flow ([3]; rat, 40-50 min): .01161 mL/min
Bile flow per kg b.w. ([3]; rat, 40-50 min): .02861 ml/min per kg b.w.
Bile flow per kg l.w. ([3]; rat, 40-50 min): .96953 ml/min per kg l.w.
Bile flow ([3]; rat, 50-60 min): .00904 mL/min
Bile flow per kg b.w. ([3]; rat, 50-60 min): .02225 ml/min per kg b.w.
Bile flow per kg l.w. ([3]; rat, 50-60 min): .75417 ml/min per kg l.w.
Bile flow ([3]; rat, 60-70 min): .01072 mL/min
Bile flow per kg b.w. ([3]; rat, 60-70 min): .02640 ml/min per kg b.w.
Bile flow per kg l.w. ([3]; rat, 60-70 min): .89457 ml/min per kg l.w.
Bile flow ([3]; rat, 70-80 min): .01018 mL/min
Bile flow per kg b.w. ([3]; rat, 70-80 min): .02506 ml/min per kg b.w.
Bile flow per kg l.w. ([3]; rat, 70-80 min): .84942 ml/min per kg l.w.
Bile flow ([3]; rat, 80-90 min): .00977 mL/min
Bile flow per kg b.w. ([3]; rat, 80-90 min): .02407 ml/min per kg b.w.
Bile flow per kg l.w. ([3]; rat, 80-90 min): .81586 ml/min per kg l.w.
dose excreted at 10 min ([3]; rat, in vivo, iv, 100 umol/kg, Percentage of dose in bile sample, 0-10 min): 0.52%
dose excreted at 20 min ([3]; rat, in vivo, iv, 100 umol/kg, Percentage of dose in bile sample, 10-20 min): 1.78%
dose excreted at 0.5 h ([3]; rat, in vivo, iv, 100 umol/kg, Percentage of dose in bile sample, 20-30 min): 2.68%
dose excreted at 40 min ([3]; rat, in vivo, iv, 100 umol/kg, Percentage of dose in bile sample, 30-40 min): 2.28%
dose excreted at 50 min ([3]; rat, in vivo, iv, 100 umol/kg, Percentage of dose in bile sample, 40-50 min): 2.66%
dose excreted at 1 h ([3]; rat, in vivo, iv, 100 umol/kg, Percentage of dose in bile sample, 50-60 min): 1.57%
dose excreted at 70 min ([3]; rat, in vivo, iv, 100 umol/kg, Percentage of dose in bile sample, 60-70 min): 1.91%
dose excreted at 80 min ([3]; rat, in vivo, iv, 100 umol/kg, Percentage of dose in bile sample, 70-80 min): 1.87%
dose excreted at 1.5 h ([3]; rat, in vivo, iv, 100 umol/kg, Percentage of dose in bile sample, 80-90 min): 2.21%
dose excreted at 10 min ([3]; rat, in vivo, iv, 100 umol/kg, Percentage of dose running total in bile, through 0-10 min): 0.52%
dose excreted at 20 min ([3]; rat, in vivo, iv, 100 umol/kg, Percentage of dose running total in bile, through 10-20 min): 2.3%
dose excreted at 0.5 h ([3]; rat, in vivo, iv, 100 umol/kg, Percentage of dose running total in bile, through 20-30 min): 4.98%
dose excreted at 40 min ([3]; rat, in vivo, iv, 100 umol/kg, Percentage of dose running total in bile, through 30-40 min): 7.26%
dose excreted at 50 min ([3]; rat, in vivo, iv, 100 umol/kg, Percentage of dose running total in bile, through 40-50 min): 9.92%
dose excreted at 1 h ([3]; rat, in vivo, iv, 100 umol/kg, Percentage of dose running total in bile, through 50-60 min): 11.5%
dose excreted at 70 min ([3]; rat, in vivo, iv, 100 umol/kg, Percentage of dose running total in bile, through 60-70 min): 13.4%
dose excreted at 80 min ([3]; rat, in vivo, iv, 100 umol/kg, Percentage of dose running total in bile, through 70-80 min): 15.3%
dose excreted at 1.5 h ([3]; rat, in vivo, iv, 100 umol/kg, Percentage of dose running total in bile, through 80-90 min): 17.5%
concentration at 0.5 h ([4]; 30 min): 557 µM
concentration at 50 min ([4]; 50 min): 508 µM
concentration at 1 h ([4]; 60 min): 462 µM
concentration at 70 min ([4]; 70 min): 462 µM
concentration at 80 min ([4]; 80 min): 404 µM
concentration at 1.5 h ([4]; 90 min): 373 µM
